In brackets after ≈: the same amount, converted by molar mass.
Legend:
[1] = test system: S. agalactiae; assay: In vitro antibacterial activity, agar dilution MIC; type: cell-based; conditions: Streptococcus agalactiae, 18 h; STR[…] 508 (Table 2)
[2] = test system: S. pyogenes; assay: In vitro antibacterial activity, agar dilution MIC; type: cell-based; conditions: Streptococcus pyogenes, 18 h
[3] = test system: K. pneumoniae; assay: In vitro antibacterial activity, agar dilution MIC; type: cell-based, Klebsiella pneumoniae; conditions: ATCC8045, 18 h; KLEBSIELLA PNEUMONIAE ATCC 8045; read-out: MIC
[4] = test system: P. aeruginosa; assay: In vitro antibacterial activity, agar dilution MIC; type: cell-based; conditions: Pseudomonas aeruginosa, 18 h
[5] = test system: E. coli; assay: In vitro antibacterial activity, agar dilution MIC; type: cell-based; conditions: Escherichia coli, 18 h
Experimental: (§1) The in vitro antibacterial activity of the test compound was determined by conventional agar dilution procedures. The organisms were grown overnight in brain-heart infusion (BHI) broth (Difco 0037-01-6) at 36° C. Twofold dilutions of the stock solution ([…]) of the test compound were made in BHI agar obtain a test concentration ranging from […]. The plate was inoculated with approximately 10^4 organisms. It was then incubated at 36° C. for 18 h. the minimal inhibitory concentration was the lowest concentration of the test compound that yielded no visible growth on the plate.

[6] = test system: EN[…]; assay: In vitro antibacterial activity, agar dilution MIC; type: cell-based; conditions: Enterococcus faecium, ATCC8043, 18 h; EN[…] ATCC 8043
Experimental: as §1

[7] = test system: M[…]; assay: In vitro antibacterial activity, agar dilution MIC; type: cell-based; conditions: Micrococcus luteus
Experimental: as §1

[8] = test system: S. aureus; assay: In vitro antibacterial activity, agar dilution MIC; type: cell-based; conditions: Staphylococcus aureus, 18 h
Experimental: as §1

[9] = test system: STAPHYLOCOCCUS EPIDERMIDIS; assay: In vitro antibacterial activity, agar dilution MIC; type: cell-based; conditions: 18 h; STAPHYLOCOCCUS EPIDERMIDIS 3519
[10] = test system: STREPTOCOCCUS BOVIS; assay: In vitro antibacterial activity, agar dilution MIC; type: cell-based; conditions: Streptococcus equinus, 18 h; STREPTOCOCCUS BOVIS A5196
[11] = test system: PROVIDENCIA STUARTII; assay: In vitro antibacterial activity, agar dilution MIC; type: cell-based; conditions: 18 h
[12] = test system: PSEUDOMONAS CEPACIA; assay: In vitro antibacterial activity, agar dilution MIC; type: cell-based; conditions: Burkholderia cepacia, 18 h; PSEUDOMONAS CEPACIA 296I
[13] = test system: ACINETOBACTER SP; assay: In vitro antibacterial activity, agar dilution MIC; type: cell-based; conditions: 18 h; ACINETOBACTER SP CMX 669
[14] = Aqueous solubility in Ringer's buffer at pH 7.5 (HPLC); type: physicochemical
Experimental: A known excess weight of the compound was shaken overnight with a known volume of Ringer's buffer (bicarbonate buffer containing sodium, potassium, calcium and magnesium ions, initially adjusted to pH 7.5). The contents were filtered, and the clear filtrate was analyzed after appropriate dilution using HPLC (UV absorbance detection).

[15] = Oral pharmacokinetics, blood level by disk agar diffusion bioassay; type: in vivo, Mice; conditions: for Blood Level of Compound: mice; for Blood Level of Compound / serum concentrations / blood levels (in words): oral 25 mg/kg; for serum concentrations / blood levels (in words): versus analogs A and B at 100 mg/kg
Experimental: Mice were administered the quantity of compound indicated orally, as a single dose. At the specified time intervals, blood was collected from groups of five mice. All samples were assayed by a disk agar diffusion bioassay procedure. Bacillus subtilis 6633 or Klebsiella pneumoniae 10032 were used as the assay organisms, and seek agar medium No. 1 (BBL Microbiology Systems; Cockeysville, MD) was the growth medium. The plates were incubated at 32° C for 18 h and read with an image analyzer (Optomax Inc.).

[16] = compared with 2-unsubstituted aminopyrrolidine analogs

Question: Which MIC [1] does the source give for `C[C@H]1C[C@H](N)CN1c1cc2c(cc1F)c(=O)c(C(=O)O)cn2-c1ccc(F)cc1F` [Example 6] here?
Answer: The MIC was 0.1 µg/mL (≈ 0.24 µM).

Question: And the MIC ([2]; STREPTOCOCCUS PYOGENES 930 CONST)?
Answer: The MIC was 0.2 µg/mL (≈ 0.479 µM).

Question: And the MIC ([2]; STREPTOCOCCUS PYOGENES EE561)?
Answer: Its MIC is 0.2 µg/mL (≈ 0.479 µM).

Question: What about the MIC [3] of the same compound?
Answer: Its MIC is 0.02 µg/mL (≈ 0.0479 µM).

Question: What about the MIC ([4]; PSEUDOMONAS AERUGINOSA A5007) of the same compound?
Answer: The MIC was 3.1 µg/mL (≈ 7.43 µM).

Question: And the MIC ([4]; PSEUDOMONAS AERUGINOSA BMH10)?
Answer: Its MIC is 0.78 µg/mL (≈ 1.87 µM).

Question: And the MIC ([4]; PSEUDOMONAS AERUGINOSA K799/61)?
Answer: The MIC was 0.02 µg/mL (≈ 0.0479 µM).

Question: And the MIC ([4]; PSEUDOMONAS AERUGINOSA K799/WT)?
Answer: The MIC was 0.39 µg/mL (≈ 0.934 µM).

Question: What about the MIC ([5]; ESCHERICHIA COLI DC-2) of the same compound?
Answer: The MIC was 0.2 µg/mL (≈ 0.479 µM).

Question: And the MIC ([5]; ESCHERICHIA COLI H560)?
Answer: The MIC was 0.2 µg/mL (≈ 0.479 µM).

Question: And the MIC ([5]; ESCHERICHIA COLI JUHL)?
Answer: The MIC was 0.05 µg/mL (≈ 0.12 µM).

Question: What about the MIC ([5]; ESCHERICHIA COLI KNK 437) of the same compound?
Answer: Its MIC is 0.2 µg/mL (≈ 0.479 µM).

Question: What about the MIC ([5]; ESCHERICHIA COLI SS) of the same compound?
Answer: The MIC was no more than 0.002 µg/mL.

Question: What about the MIC [6] of the same compound?
Answer: The MIC was 0.1 µg/mL (≈ 0.24 µM).

Question: And the MIC ([7]; ATCC4698, 18 h, M[…] ATCC 4698)?
Answer: The MIC was 0.1 µg/mL (≈ 0.24 µM).

Question: And the MIC ([7]; ATCC9341, 18 h, M[…] ATCC 9341)?
Answer: Its MIC is 0.2 µg/mL (≈ 0.479 µM).

Question: What about the MIC ([8]; STAPHYLOCOCCUS AUREUS 45) of the same compound?
Answer: The MIC was 0.1 µg/mL (≈ 0.24 µM).

Question: And the MIC ([8]; STAPHYLOCOCCUS AUREUS 45RAR2)?
Answer: The MIC was 0.1 µg/mL (≈ 0.24 µM).

Question: And the MIC ([8]; STAPHYLOCOCCUS AUREUS A5177)?
Answer: Its MIC is 0.2 µg/mL (≈ 0.479 µM).

Question: And the MIC ([8]; STAPHYLOCOCCUS AUREUS CMX 503A)?
Answer: The MIC was 0.1 µg/mL (≈ 0.24 µM).

Question: And the MIC ([8]; STAPHYLOCOCCUS AUREUS CMX 553)?
Answer: The MIC was 0.1 µg/mL (≈ 0.24 µM).

Question: What about the MIC ([8]; STAPHYLOCOCCUS AUREUS CMX 6868) of the same compound?
Answer: Its MIC is 0.05 µg/mL (≈ 0.12 µM).

Question: And the MIC ([8]; ATCC6538P, STAPHYLOCOCCUS AUREUS ATCC 6538P)?
Answer: The MIC was 0.02 µg/mL (≈ 0.0479 µM).

Question: And the MIC [9]?
Answer: The MIC was 0.2 µg/mL (≈ 0.479 µM).

Question: What about the MIC [10] of the same compound?
Answer: Its MIC is 0.2 µg/mL (≈ 0.479 µM).

Question: And the MIC [11]?
Answer: Its MIC is 1.56 µg/mL (≈ 3.74 µM).

Question: What about the MIC [12] of the same compound?
Answer: Its MIC is 12.5 µg/mL (≈ 29.9 µM).

Question: And the MIC [13]?
Answer: The MIC was 0.1 µg/mL (≈ 0.24 µM).

Question: What about the “AQUEOUS SOLUBILITY” value ([14]; at pH 7.5 in Ringer's buffer) of the same compound?
Answer: The value was 0.053 mg/mL.

Question: What about the “solubility properties (in words)” value [14, 16] of the same compound?
Answer: Its value is “significantly improved aqueous solubility properties”.

Question: And the “oral absorption properties (in words)” value [15, 16]?
Answer: Its value is “greatly improved oral absorption properties”.

Question: And the “Blood Level of Compound” value ([15]; t = 0.5 h)?
Answer: The value was 3700 ng/mL.

Question: And the “Blood Level of Compound” value ([15]; t = 1.0 h)?
Answer: The value was 4300 ng/mL.

Question: And the “Blood Level of Compound” value ([15]; t = 2.0 h)?
Answer: The value was 2800 ng/mL.

Question: What about the “Blood Level of Compound” value ([15]; t = 3.0 h) of the same compound?
Answer: Its value is 1100 ng/mL.

Question: What about the “Blood Level of Compound” value ([15]; t = 6.0 h) of the same compound?
Answer: Its value is 100 ng/mL.

Question: What about the “Blood Level of Compound” value ([15]; t = 24.0 h) of the same compound?
Answer: The value was 0 ng/mL.

Question: And the “serum concentrations / blood levels (in words)” value [15]?
Answer: Its value is “still achieve better blood”.

Question: What about the “serum concentrations / blood levels (in words)” value ([15]; listed as Compound 6) of the same compound?
Answer: The value was “higher serum concentrations”.

Reference: patent US4962112A, “7-(2-methyl-4-aminopyrrolidinyl)naphthryidine and quinoline compounds” (Abbott Laboratories, priority 1988, dated 1990)
